Experimental data published in article PMC5906710, “Simvastatin Enhances Activity and Trafficking of α7 Nicotinic Acetylcholine Receptor in Hippocampal Neurons Through PKC and CaMKII Signaling Pathways” (Frontiers in Pharmacology, 2018).

Molecular target: T1, α7 nicotinic acetylcholine receptor (α7nAChR) (Mus musculus, UniProt P49582)
T1 construct: gene Chrna7; native receptor in hippocampal CA1 pyramidal cells (slices)
Assay: whole-cell patch-clamp of ACh-evoked currents in mouse hippocampal slices, dose-response

T1 sequence (P49582 23-502): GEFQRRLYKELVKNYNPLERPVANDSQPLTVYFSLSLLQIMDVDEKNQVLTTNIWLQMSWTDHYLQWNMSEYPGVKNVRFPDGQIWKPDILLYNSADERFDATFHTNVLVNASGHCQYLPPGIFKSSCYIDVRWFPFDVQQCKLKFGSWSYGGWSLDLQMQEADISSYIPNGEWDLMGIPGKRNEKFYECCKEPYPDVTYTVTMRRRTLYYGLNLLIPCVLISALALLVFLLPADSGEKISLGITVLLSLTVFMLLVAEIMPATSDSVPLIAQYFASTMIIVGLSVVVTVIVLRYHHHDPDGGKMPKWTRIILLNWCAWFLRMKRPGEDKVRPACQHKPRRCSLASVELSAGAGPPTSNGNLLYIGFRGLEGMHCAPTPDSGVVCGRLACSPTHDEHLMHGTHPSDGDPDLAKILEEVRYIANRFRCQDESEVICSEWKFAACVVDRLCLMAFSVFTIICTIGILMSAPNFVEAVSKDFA

In the case of `CC(=O)OCC[N+](C)(C)C` [ACh, acetylcholine], the EC50 is reported as 117.1 ± 0.94 µM.
